Data from ChEMBL document CHEMBL1201862, “PubChem BioAssay data set” (2004).
The source made the active and inactive calls.

Experiments:
Aminopeptidase N = target: T1, Aminopeptidase N (Plasmodium falciparum FcB1/Columbia, UniProt O96935); test: P. falciparum M1AAP inhibitors, biochemical, fluorogenic H-Leu-NHMec substrate, 1536-well (AID 1445); set-up: species or system Plasmodium falciparum 3D7, 3D7
T1 sequence (O96935 whole entry): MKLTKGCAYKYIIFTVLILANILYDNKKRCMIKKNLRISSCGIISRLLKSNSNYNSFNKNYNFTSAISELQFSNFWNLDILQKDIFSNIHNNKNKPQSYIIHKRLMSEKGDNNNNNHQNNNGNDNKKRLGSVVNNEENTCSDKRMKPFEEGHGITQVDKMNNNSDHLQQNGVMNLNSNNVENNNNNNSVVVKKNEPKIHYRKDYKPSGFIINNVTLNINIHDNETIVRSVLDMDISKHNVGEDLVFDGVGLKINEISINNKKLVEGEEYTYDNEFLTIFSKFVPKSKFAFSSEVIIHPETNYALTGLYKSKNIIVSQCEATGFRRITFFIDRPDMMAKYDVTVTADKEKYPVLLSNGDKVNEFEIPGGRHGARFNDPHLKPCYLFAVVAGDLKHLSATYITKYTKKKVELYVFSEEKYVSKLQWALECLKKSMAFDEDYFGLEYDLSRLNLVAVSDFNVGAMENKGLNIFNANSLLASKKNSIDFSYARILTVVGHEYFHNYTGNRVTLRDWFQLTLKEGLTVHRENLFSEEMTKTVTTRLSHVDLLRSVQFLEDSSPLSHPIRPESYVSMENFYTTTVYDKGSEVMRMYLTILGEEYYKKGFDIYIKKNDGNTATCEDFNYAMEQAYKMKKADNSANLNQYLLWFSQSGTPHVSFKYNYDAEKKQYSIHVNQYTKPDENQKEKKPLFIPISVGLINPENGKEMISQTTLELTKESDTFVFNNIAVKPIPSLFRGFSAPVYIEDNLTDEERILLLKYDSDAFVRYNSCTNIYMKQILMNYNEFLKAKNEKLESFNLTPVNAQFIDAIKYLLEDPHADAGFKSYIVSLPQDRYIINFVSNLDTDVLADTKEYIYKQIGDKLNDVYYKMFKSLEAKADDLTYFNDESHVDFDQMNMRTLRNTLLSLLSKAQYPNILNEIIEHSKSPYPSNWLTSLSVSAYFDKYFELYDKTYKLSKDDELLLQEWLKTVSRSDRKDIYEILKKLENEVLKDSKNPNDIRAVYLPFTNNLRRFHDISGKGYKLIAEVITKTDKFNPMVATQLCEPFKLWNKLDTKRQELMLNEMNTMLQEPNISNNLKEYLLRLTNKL

HEK293 [1] = test: cells; format: functional, cell-based; settings: Homo sapiens
HEK293 [2] = test: cells; format: functional, cell-based; settings: Homo sapiens; remark: listed apart in the source
HEK293 [3] = test: NOD2 signaling inhibitors in MDP-stimulated cells, cell-based, uHTS, luminescence (AID 2001); format: functional; settings: Homo sapiens
[4] = target: T2, Calpain-2 catalytic subunit (Sus scrofa, UniProt P43367); test: pig calpain II inhibitor potency, dose response, biochemical, fluorogenic peptide substrate (AID 1420); format: functional
T2 sequence (P43367 whole entry): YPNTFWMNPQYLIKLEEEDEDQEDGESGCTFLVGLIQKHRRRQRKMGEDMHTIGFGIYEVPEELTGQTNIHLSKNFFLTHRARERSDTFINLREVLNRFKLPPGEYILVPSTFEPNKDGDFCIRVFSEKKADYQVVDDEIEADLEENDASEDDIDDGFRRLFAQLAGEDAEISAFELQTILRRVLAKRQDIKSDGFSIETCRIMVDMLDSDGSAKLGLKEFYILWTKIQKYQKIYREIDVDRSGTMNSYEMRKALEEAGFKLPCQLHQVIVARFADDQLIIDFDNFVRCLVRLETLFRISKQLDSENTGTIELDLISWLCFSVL

Genome polyprotein = Genome polyprotein (dengue virus type 2, UniProt P29990); test: Dengue-2 NS5 methyltransferase inhibitors, primary screen, biochemical, confirmation dose response (AID 588689); format: functional
Sequence of Genome polyprotein (P29990 2492-3391 limits assumed): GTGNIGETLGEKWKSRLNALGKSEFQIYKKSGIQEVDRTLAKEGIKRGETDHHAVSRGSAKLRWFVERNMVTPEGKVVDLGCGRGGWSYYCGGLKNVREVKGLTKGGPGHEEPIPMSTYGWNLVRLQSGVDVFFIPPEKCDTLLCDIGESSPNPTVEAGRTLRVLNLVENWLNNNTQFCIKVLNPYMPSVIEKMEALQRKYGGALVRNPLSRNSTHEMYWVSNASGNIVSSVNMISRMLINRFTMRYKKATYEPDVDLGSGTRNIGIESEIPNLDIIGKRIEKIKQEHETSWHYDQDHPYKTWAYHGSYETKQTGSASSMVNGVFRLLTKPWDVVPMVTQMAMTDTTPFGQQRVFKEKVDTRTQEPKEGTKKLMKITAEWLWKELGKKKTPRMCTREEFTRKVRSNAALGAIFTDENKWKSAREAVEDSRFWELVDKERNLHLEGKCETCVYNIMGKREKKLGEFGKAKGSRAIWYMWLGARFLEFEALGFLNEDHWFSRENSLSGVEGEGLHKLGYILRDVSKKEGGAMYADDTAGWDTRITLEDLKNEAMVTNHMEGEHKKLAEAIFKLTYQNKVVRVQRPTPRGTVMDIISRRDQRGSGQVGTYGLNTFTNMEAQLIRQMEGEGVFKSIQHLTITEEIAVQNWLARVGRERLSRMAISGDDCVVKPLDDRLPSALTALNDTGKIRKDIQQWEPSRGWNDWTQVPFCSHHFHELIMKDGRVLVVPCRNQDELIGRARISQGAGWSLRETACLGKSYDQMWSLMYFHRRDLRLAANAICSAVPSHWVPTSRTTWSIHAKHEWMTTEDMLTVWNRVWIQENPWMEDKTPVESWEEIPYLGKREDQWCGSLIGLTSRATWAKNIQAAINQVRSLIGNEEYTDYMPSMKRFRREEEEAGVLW

Cytochrome P450 2D6 = Cytochrome P450 2D6 (Homo sapiens, UniProt P10635);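 further: CYP2D6 member of a cytochrome P450 panel assay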
Sequence of Cytochrome P450 2D6 (P10635 whole entry): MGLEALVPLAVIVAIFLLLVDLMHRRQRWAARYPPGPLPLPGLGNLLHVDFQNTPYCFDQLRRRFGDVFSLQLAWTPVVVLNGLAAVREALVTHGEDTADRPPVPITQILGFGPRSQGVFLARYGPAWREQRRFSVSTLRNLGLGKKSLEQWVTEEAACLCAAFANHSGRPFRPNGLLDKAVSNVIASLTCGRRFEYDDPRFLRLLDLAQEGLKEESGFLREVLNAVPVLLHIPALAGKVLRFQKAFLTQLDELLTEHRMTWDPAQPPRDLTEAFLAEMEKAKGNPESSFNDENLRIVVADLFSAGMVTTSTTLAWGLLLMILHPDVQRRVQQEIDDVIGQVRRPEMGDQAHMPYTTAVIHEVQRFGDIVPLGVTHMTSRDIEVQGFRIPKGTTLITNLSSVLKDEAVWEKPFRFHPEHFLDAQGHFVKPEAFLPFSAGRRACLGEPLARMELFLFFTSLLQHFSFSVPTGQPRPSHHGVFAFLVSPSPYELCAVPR

Cytochrome P450 1A2 = target: T3, Cytochrome P450 1A2 (Homo sapiens, UniProt P05177);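 further: PubChem cytochrome P450 panel assay, CYP1A2 panel member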
T3 sequence (P05177 whole entry): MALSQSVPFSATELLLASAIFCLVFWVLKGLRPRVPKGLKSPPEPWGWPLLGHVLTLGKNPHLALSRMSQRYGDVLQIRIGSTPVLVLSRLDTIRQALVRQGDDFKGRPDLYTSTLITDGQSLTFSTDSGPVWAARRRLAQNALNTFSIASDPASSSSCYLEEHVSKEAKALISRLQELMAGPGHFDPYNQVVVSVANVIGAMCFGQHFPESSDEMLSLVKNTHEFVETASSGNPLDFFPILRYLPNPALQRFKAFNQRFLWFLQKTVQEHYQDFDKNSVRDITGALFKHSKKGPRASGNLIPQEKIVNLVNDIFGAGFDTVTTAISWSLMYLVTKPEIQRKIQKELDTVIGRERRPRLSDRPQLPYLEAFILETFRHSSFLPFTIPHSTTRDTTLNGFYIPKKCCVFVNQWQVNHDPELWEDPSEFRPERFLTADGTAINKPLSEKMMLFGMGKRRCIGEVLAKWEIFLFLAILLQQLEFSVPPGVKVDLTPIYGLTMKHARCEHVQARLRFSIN

[5] = inhibitors of intracellular T. cruzi replication, confirmation, NIH3T3 host cells, beta-gal luminescence (AID 2044); format: functional, cell-based;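 further: intracellular parasites grown in NIH/3T3 mouse fibroblasts as host cells; luminescent beta-galactosidase reporter signal from transgenic T. cruzi replicating inside host cells; inhibitors lower the luminescence signal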
[6] = cytotoxicity toward NIH3T3 fibroblasts, dose response, counter-screen, cell-based, ATP luminescence, mouse fibroblasts (AID 2010); format: functional;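 further: cells exposed to compound for about 90 hours before reading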
[7] = P. falciparum late gametocyte killing, dose response, luminescence (AID 1117278); format: functional, cell-based;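 further: gametocytes exposed to compound for 24 hours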
[8] = Jurkat T cell cytotoxicity, dose response, cytotoxicity control for P. falciparum gametocyte viability project, luminescence (AID 1117277); format: functional, cell-based;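 further: potency reflects loss of cellular ATP meaning fewer viable cells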
[9] = target: T4, Mannose-6-phosphate isomerase (Homo sapiens, UniProt P34949); test: human PMI inhibitors, high substrate, primary screen, biochemical, fluorescence intensity, high mannose 6-phosphate (AID 1220)
T4 sequence (P34949 whole entry): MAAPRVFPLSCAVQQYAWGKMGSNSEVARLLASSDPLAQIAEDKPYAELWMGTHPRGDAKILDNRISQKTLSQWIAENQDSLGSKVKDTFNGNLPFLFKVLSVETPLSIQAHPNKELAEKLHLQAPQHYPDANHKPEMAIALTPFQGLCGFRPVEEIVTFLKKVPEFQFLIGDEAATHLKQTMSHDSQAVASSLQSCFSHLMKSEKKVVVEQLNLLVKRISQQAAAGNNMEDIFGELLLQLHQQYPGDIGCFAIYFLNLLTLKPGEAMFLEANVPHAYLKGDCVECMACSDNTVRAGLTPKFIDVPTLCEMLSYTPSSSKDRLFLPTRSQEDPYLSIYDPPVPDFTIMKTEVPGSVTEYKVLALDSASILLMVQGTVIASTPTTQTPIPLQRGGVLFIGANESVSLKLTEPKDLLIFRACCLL

[10] = test system: Streptococcus sp. 'group A'; test: growth inhibition of control SK(-) GAS strain, dose response, counter-screen for streptokinase expression inhibitor project, luminescence, kanamycin, BacTiterGlo, confirmation (AID 1900); format: functional, organism-based
Streptokinase A = target: T5, Streptokinase A (Streptococcus pyogenes serotype M1, UniProt P10520); test: S. pyogenes streptokinase expression inhibitors, potency, dose response, plasminogen activation absorbance, OD405 (AID 1914); format: functional, Streptococcus pyogenes M1 GAS;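 further: secreted streptokinase activity via plasminogen activation per viability signal from cell pellet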
T5 sequence (P10520 whole entry): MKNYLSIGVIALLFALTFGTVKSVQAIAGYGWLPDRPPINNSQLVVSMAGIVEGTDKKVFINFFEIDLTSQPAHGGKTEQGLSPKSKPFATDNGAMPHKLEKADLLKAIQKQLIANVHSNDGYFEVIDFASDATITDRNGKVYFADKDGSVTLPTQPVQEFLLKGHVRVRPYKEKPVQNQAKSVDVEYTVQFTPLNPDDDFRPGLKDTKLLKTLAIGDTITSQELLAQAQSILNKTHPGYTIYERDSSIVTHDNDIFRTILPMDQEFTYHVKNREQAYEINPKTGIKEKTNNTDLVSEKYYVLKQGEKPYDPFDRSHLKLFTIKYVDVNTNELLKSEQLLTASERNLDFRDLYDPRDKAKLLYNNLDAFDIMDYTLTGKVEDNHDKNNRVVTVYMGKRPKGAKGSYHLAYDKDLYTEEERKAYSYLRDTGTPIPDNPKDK

[11] = target: Induced myeloid leukemia cell differentiation protein Mcl-1 (Homo sapiens, UniProt Q07820); format: functional
Sequence of Induced myeloid leukemia cell differentiation protein Mcl-1 (Q07820 whole entry): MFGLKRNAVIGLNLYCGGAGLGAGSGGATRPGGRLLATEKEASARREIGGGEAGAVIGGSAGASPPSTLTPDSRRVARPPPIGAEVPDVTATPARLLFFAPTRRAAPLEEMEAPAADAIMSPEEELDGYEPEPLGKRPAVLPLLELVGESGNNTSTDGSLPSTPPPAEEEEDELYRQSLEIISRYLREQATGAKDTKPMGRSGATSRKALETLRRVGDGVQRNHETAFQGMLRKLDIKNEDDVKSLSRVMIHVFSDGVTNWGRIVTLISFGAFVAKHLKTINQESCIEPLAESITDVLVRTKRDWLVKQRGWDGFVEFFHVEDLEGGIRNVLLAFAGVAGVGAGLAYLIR

Streptococcus = test: Group A Streptococcus viability loss, dose response, counter-screen for streptokinase expression inhibitor project, luminescence, BacTiterGlo (AID 1915); format: functional, organism-based;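 further: potency for reduction of bacterial viability or growth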
[12] = target: T6, Microphthalmia-associated transcription factor (Homo sapiens, UniProt O75030); test: TRPM1 promoter luciferase signal decrease, dose response, MITF inhibitor project, cell-based, SK-MEL-5, cherry-picked, set 3 (AID 493073); format: functional
T6 sequence (O75030 whole entry): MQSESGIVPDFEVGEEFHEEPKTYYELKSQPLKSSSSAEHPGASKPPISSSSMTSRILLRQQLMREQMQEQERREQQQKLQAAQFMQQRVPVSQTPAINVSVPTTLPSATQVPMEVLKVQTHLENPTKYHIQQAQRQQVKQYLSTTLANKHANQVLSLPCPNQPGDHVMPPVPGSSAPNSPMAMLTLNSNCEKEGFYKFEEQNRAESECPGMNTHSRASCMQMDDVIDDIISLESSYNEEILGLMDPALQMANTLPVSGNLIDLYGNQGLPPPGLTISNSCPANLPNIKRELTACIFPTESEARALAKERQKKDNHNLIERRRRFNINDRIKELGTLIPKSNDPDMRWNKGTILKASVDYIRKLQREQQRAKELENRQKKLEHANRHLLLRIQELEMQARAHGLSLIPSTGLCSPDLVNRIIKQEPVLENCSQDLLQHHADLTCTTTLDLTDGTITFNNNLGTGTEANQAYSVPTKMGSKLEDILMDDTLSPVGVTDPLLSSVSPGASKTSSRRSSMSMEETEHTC

[13] = LGR2 antagonists, dose response, cell-based, HEK293, CRE-luciferase reporter, cherry pick, set 2 (AID 743343); format: functional;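 further: transfected cells were stimulated with diluted bursicon conditioned medium after compound addition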
[14] = MC4R antagonists, dose response, counter-screen for LGR2 antagonist project, cell-based, plate reader, cherry pick (AID 743444); format: functional;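 further: transfected HEK 293 cells stimulated with alpha-MSH peptide; potency of inhibitors of the alpha-MSH evoked signal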
[15] = P. falciparum 3D7-ScDHODH growth inhibitors, dose response, SYBR Green, dry powder samples (AID 1159570); format: functional, cell-based;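 further: parasite growth measured after 72 hours of compound exposure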
[16] = HepG2 cell cytotoxicity, dose response, cytotoxicity control, plate reader, dry powder samples (AID 1159569); format: functional, cell-based;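 further: inhibitor potency with signal falling toward the positive control level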
[17] = P. falciparum Dd2 growth inhibitors, dose response, SYBR Green, cherry-picked samples (AID 1159567); format: functional, cell-based
[18] = P. falciparum Dd2 growth inhibitors, dose response, SYBR Green, dry powder samples (AID 1159566); format: functional, cell-based;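 further: potency for growth inhibition with lower SYBR green DNA signal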
[19] = P. falciparum ATP4 D1247Y mutant growth inhibitors, dose response, NITD609-resistant line, SYBR Green, dry powder (AID 1159571); format: functional, cell-based;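 further: parasites synchronized at ring stage by sorbitol before testing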

O=S(=O)(Nc1nc(-c2sccc2Cl)cs1)c1cc(Cl)ccc1Cl
IC50 (Aminopeptidase N): 44.1 µM (active)
IC50 (HEK293 [1]): 10.4 µM (active)
IC50 (HEK293 [2]): 17.7 µM (active)
IC50 (HEK293 [3]): 7.47 µM (active)
IC50 [4]: 5 µM (not active)
IC50 (Genome polyprotein): 41.6 µM (active)
AC50 (Cytochrome P450 2D6): 28.2 µM (inconclusive)
AC50 (Cytochrome P450 1A2): 28.2 µM (inconclusive)

COc1ccc(CCNCc2ccc(OCc3ccc(Cl)nc3)c(OC)c2)cc1OC
EC50 [5]: < 0.1 µM (active)
EC50 [6]: > 60 µM (inconclusive)
EC50 (cells): 0.048 µM (active)

CCC(C)NS(=O)(=O)c1ccc(NS(C)(=O)=O)cc1 (configuration not stated)
IC50 [7]: > 109 µM (inactive)
IC50 [8]: > 83.3 µM (inactive)

Cc1ccccc1/N=C/c1cccc(O)c1O
IC50 [9]: 11.2 µM (active)

O=C(O)c1ccc(N/N=C/c2ccc(OC(=O)c3cccc(Cl)c3)cc2)cc1
EC50 [10]: 0.834 µM (active)
EC50 (Streptokinase A): > 150 µM (not active)
IC50 [4]: 3.04 µM (not active)
IC50 [11]: 8.08 µM (active)
EC50 (Streptococcus): 15.5 µM (active)
AC50 [12]: 3.21 µM (active)
AC50 [13]: 2.03 µM (active)
AC50 [14]: 1.21 µM (active)

C[C@@H]1CN([C@H](C)CO)C(=O)c2ccccc2-c2ccccc2CO[C@@H]1CN(C)Cc1ccc(C(F)(F)F)cc1
AC50 [15]: 3.53 µM (active)
AC50 [16]: 21.5 µM (active)
AC50 [17]: 2.16 µM (active)
AC50 [18]: 1.93 µM (active)
AC50 [19]: 1.82 µM (active)

COc1ccc(NC(=O)N(C)C[C@H]2Oc3cc(C#CCC(C)C)ccc3S(=O)(=O)N([C@H](C)CO)C[C@H]2C)cc1
AC50 [15]: 1.5 µM (active)
AC50 [16]: 38.3 µM (active)
AC50 [17]: 1.3 µM (active)
AC50 [18]: 1.21 µM (active)
AC50 [19]: 1.7 µM (active)
